Measured values from patent US7579325B2, “Drugs containing reduced of vitamin B2” (Eisai R & D Management Co., Ltd., priority 2001, dated 2009).

Experiments:
[1] = system: Staphylococcus aureus BO-72 strain; experiment: Effect on Staphylococcus aureus-infected model (mouse survival); type: in vivo; details: for survival number / survival rate %: male ICR mice, 10 per group, 10 days after inoculation
Procedure: (§1) Riboflavin sodium phosphate (FMN-Na, JP grade) and leucoflavin sodium phosphate (FMN-H2) prepared in Example 1 were used.
Male mice (Slc: ICR, 8-week old) (10 mice per each test group) was administered intraperitoneally with each of riboflavin sodium phosphate (dosage: 25, 50 and 100 mg/kg in dosage volumes of 0.25, 0.5 and 1 ml, respectively) and leucoflavin phosphate (dosage: 2.5, 5 and 10 mg/kg in dosage volumes of 0.25, 0.5 and 1 ml, respectively) which had been dissolved in physiological saline and sterilized by filtration. Twenty-four hours after the administration, Staphylococcus aureus BO-72 strain was administered intravenously at a dose of 8.7×10^7 CFU/mouse (suspended in 0.2 ml of physiological saline), and the survival rate was determined 10 days after the inoculation. In the control group, 1.0 ml of physiological saline was administered intraperitoneally instead of the drugs. The determination of the medicinal efficacy was conducted by χ^2 test.

[2] = system: E. coli E01292 strain; experiment: Effect on E. coli-infected model (mouse survival); type: in vivo; details: for survival number / survival rate %: male ICR mice, 10 per group, 4 days after inoculation
Procedure: Twelve mg of riboflavin sodium phosphate (FMN-Na, JP grade) was dissolved in 40 ml of physiological saline and then added and mixed with 480 mg of sodium hydrosulfite to produce leucoflavin phosphate (FMN-H2).
Male mice (Slc: ICR, 8-week old) (10 mice per each test group) was administered intraperitoneally with each of riboflavin sodium phosphate (dosage: 12.5, 25, 50 and 100 mg/kg in dosage volumes of 0.125, 0.25, 0.5 and 1 ml, respectively) and leucoflavin phosphate (dosage: 1.25, 2.5, 5 and 10 mg/kg in dosage volumes of 0.125, 0.25, 0.5 and 1 ml, respectively) which had been dissolved in physiological saline and sterilized by filtration. Twenty-four hours after the administration, E. coli E01292 strain was inoculated subcutaneously at a dose of 5.3×10^7 CFU/mouse (suspended in 0.2 ml of physiological saline), and the survival rate was determined 4 days after the inoculation. In the control group, 1.0 ml of physiological saline was administered intraperitoneally instead of the drugs. The determination of the medicinal efficacy was conducted by χ^2 test.

[3] = Effect on endotoxin shock model (LPS, mouse survival); type: in vivo, mice; details: for survival number / survival rate %: male ICR mice, 10 per group, 4 days after administration
Procedure: as §1
Male mice (Slc: ICR, 6-week old) (10 mice per each test group) was administered intraperitoneally with lipopolysaccharide from E. coli serum type 0111-B4 (Sigma; abbreviated as “LPS” hereinbelow) at a dose of 15 mg/kg.
Six hours after the administration, each of riboflavin sodium phosphate (dosage: […] in dosage volumes of 0.25, 0.5 and 1 ml, respectively) and leucoflavin phosphate (dosage: 2.5, 5 and 10 mg/kg in dosage volumes of 0.25, 0.5 and 1 ml, respectively) which had been dissolved in physiological saline and sterilized by filtration was administered intraperitoneally. The survival rate was determined 4 days after the administration. In the control group, 1.0 ml of physiological saline was administered intraperitoneally instead of the drugs. The determination of the medicinal efficacy was conducted by χ^2 test.

[4] = 25 mg/kg i.p. 24 h before i.v. S. aureus
[5] = 50 mg/kg i.p. 24 h before i.v. S. aureus
[6] = 100 mg/kg i.p. 24 h before i.v. S. aureus
[7] = 12.5 mg/kg i.p. 24 h before s.c. E. coli inoculation
[8] = 25 mg/kg i.p. 24 h before s.c. E. coli inoculation
[9] = 50 mg/kg i.p. 24 h before s.c. E. coli inoculation
[10] = 100 mg/kg i.p. 24 h before s.c. E. coli inoculation
[11] = 5 mg/kg i.p. 6 h after LPS 15 mg/kg i.p.
[12] = 10 mg/kg i.p. 6 h after LPS 15 mg/kg i.p.
[13] = 20 mg/kg i.p. 6 h after LPS 15 mg/kg i.p.
[14] = 2.5 mg/kg i.p. 24 h before i.v. S. aureus
[15] = 5 mg/kg i.p. 24 h before i.v. S. aureus
[16] = 10 mg/kg i.p. 24 h before i.v. S. aureus
[17] = 1.25 mg/kg i.p. 24 h before s.c. E. coli inoculation
[18] = 2.5 mg/kg i.p. 24 h before s.c. E. coli inoculation
[19] = 5 mg/kg i.p. 24 h before s.c. E. coli inoculation
[20] = 10 mg/kg i.p. 24 h before s.c. E. coli inoculation
[21] = 2.5 mg/kg i.p. 6 h after LPS 15 mg/kg i.p.

## Cc1cc2nc3c(=O)[nH]c(=O)nc-3n(C[C@H](O)[C@H](O)[C@H](O)COP(=O)(O)O)c2cc1C [VB2Na, riboflavin sodium phosphate, reference compound]
[1]; [4]
  survival number: 2
  survival rate %: 20%
[1]; [5]
  survival number: 4
  survival rate %: 40%
[1]; [6]
  survival number: 7
  survival rate %: 70%
[2]; [7]
  survival number: 1
  survival rate %: 10%
[2]; [8]
  survival number: 3
  survival rate %: 30%
[2]; [9]
  survival number: 5
  survival rate %: 50%
[2]; [10]
  survival number: 9
  survival rate %: 90%
[3]; [11]
  survival number: 3
  survival rate %: 30%
[3]; [12]
  survival number: 4
  survival rate %: 40%
[3]; [13]
  survival number: 7
  survival rate %: 70%

## Cc1cc2c(cc1C)N(C[C@H](O)[C@H](O)[C@H](O)COP(=O)(O)O)c1[nH]c(=O)[nH]c(=O)c1N2 [FMN-H2, leucoflavin phosphate]
[1]; [14]
  survival number: 3
  survival rate %: 30%
[1]; [15]
  survival number: 6
  survival rate %: 60%
[1]; [16]
  survival number: 8
  survival rate %: 80%
[1]; mice, from Table 2
  infection-protective effect against Staphylococcus aureus compared with riboflavin sodium phosphate: about 10 fold
[2]; [17]
  survival number: 0
  survival rate %: 10%
[2]; [18]
  survival number: 4
  survival rate %: 40%
[2]; [19]
  survival number: 6
  survival rate %: 60%
[2]; [20]
  survival number: 9
  survival rate %: 90%
[2]; mice, from Table 1
  infection-protective effect against E. coli compared with riboflavin sodium phosphate: about 10 fold
[3]; [21]
  survival number: 2
  survival rate %: 20%
[3]; [11]
  survival number: 6
  survival rate %: 60%
[3]; [12]
  survival number: 8
  survival rate %: 80%
[3]; mice, from Table 3
  life-saving effect on endotoxin shock compared with riboflavin sodium phosphate: about 2 fold
